Reference: article PMC5788404 (Journal of Medicinal Chemistry, 2017)
Entries after “also recorded” stand apart in the source; their conditions may differ. Values belong to the compound of their own block, whether it stands above or below them.

Key:
[1] = molecular target: T1, VBC protein (VHL:ElonginB:ElonginC protein complex) (Homo sapiens, UniProt P40337); format: binding; settings: based on FP results, GE = ΔpKd/ΔHA (heavy atoms)
T1 construct: made in house

[2] = tested on: HeLa cells; assay: Intracellular drug concentration (accumulation in HeLa cells); format: in vitro ADME, Human; settings: HeLa cells, 50 μM, 2 h
[3] = as above; format: in vitro ADME, Human; settings: human; HeLa cell lysate, equilibrium dialysis; read-out: Fraction unbound (fu)
[4] = tested on: HIF-1α; assay: cells; settings: Homo sapiens, HeLa, 2 h, read-out: HIF-1α Stabilization (Protein % levels), HeLa cells, 50 μM inhibitor, 2 h, Western blot, normalized to level observed with 1
[5] = Intrinsic clearance (Cli) in liver microsomes; format: in vitro ADME; settings: female CD1 mouse liver microsomes, 0.5 μM compound
[6] = molecular target: T2, VBC complex (VHL:ElonginB:ElonginC) (Homo sapiens, UniProt P40337); format: binding; settings: for LE: LE = −RT ln Kd/NHA; for LE / LLE: on the basis of ITC results; for LLE: LLE = pKd–Log D
T2 construct: made in house
T2 sequence (Q15369 17-112): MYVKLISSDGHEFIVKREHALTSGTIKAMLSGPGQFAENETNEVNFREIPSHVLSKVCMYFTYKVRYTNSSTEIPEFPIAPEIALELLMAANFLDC
T2 sequence (P40337 54-213): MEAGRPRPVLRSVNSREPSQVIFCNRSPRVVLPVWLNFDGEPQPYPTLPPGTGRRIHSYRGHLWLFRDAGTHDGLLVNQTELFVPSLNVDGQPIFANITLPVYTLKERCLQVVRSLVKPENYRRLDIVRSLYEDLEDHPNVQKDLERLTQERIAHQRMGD
T2 sequence (Q15370 1-104, further chain): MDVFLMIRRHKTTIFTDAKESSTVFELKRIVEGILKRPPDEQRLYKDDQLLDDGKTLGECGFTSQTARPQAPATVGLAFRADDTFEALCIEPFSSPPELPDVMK

[7] = Parallel Artificial Membrane Permeability Assay (PAMPA); format: in vitro ADME; settings: pH 7.4, as printed in text and footnote
[8] = molecular target: T3, immobilized VBC protein (Homo sapiens, UniProt P40337); assay: biochemical; format: binding; settings: for Dissociative t1/2: t1/2 = ln2/koff; for kon: SPR
T3 construct: made in house
T3 sequence (Q15369 17-112): as the sequence (Q15369 17-112) above
T3 sequence (Q15370 1-104, further chain): as the sequence (Q15370 1-104, further chain) above
T3 sequence (P40337 54-213): as the sequence (P40337 54-213) above

[9] = tested on: HeLa cells; assay: Proliferation assay; format: cell-based, Human; settings: 150 μM, relative to DMSO vehicle
[10] = tested on: HeLa cells; assay: Colony formation assay; format: cell-based, Human; settings: 150 μM

T1 sequence (P40337 54-213): as above
T1 sequence (Q15369 17-112, further chain): as the sequence (Q15369 17-112) above
T1 sequence (Q15370 1-104, further chain): as the sequence (Q15370 1-104, further chain) above

SMILES: Cc1ncsc1-c1ccc(CNC(=O)[C@@H]2C[C@@H](O)CN2C(=O)[C@@H](NC(=O)OC(C)(C)C)C(C)(C)C)cc1 [Inhibitor 2]
GE (group efficiency) [1]: −0.41

SMILES: CC(=O)N[C@H](C(=O)N1C[C@H](O)C[C@H]1C(=O)NCc1ccc(-c2scnc2C)cc1)C(C)(C)C [Inhibitor 1]
Compound associated with cells [2]: 463.8 µM
fraction unbound [3]: 0.0016
Emax at 50 µM [4]: 100 ± 7%
Microsomal stability (intrinsic clearance) [5]: 0.7 mL/min/g

SMILES: CC(C)NCC(O)COc1cccc2ccccc12 (centres unmarked) [propanolol, reference compound]
Compound associated with cells [2]: 2679.0 µM

SMILES: Cc1ncsc1-c1ccc(CNC(=O)[C@@H]2C[C@@H](O)CN2C(=O)[C@@H](N2CCCC2=O)C(C)(C)C)cc1 [Inhibitor 12, (2S,4R)-1-((S)-3,3-Dimethyl-2-(2-oxopyrrolidin-1-yl)butanoyl)-4-hydroxy-N-(4-(4-methylthiazol-5-yl)benzyl)pyrrolidine-2-carboxamide]
GE (group efficiency) [1]: −0.48

SMILES: Cc1ncsc1-c1ccc(CNC(=O)[C@@H]2C[C@H](O)CN2C(=O)[C@@H](NC(=O)C2(F)CC2)C(C)(C)C)cc1 [cis-10, (2S,4S)-1-((S)-2-(1-Fluorocyclopropanecarboxamido)-3,3-dimethylbutanoyl)-4-hydroxy-N-(4-(4-methylthiazol-5-yl)benzyl)pyrrolidine-2-carboxamide]
toxicity in cell-proliferation assay [9]: a degree of cytotoxicity
binding to VHL ([6]; ITC and FP binding curves, Figure 2): no longer binds to VHL
toxicity in colony formation assay [10]: a degree of cytotoxicity

SMILES: CC(=O)NC1(C(=O)N[C@H](C(=O)N2C[C@H](O)C[C@H]2C(=O)NCc2ccc(-c3scnc3C)cc2)C(C)(C)C)CC1 [Inhibitor 17, (2S,4R)-1-((S)-2-(1-Acetamidocyclopropanecarboxamido)-3,3-dimethylbutanoyl)-4-hydroxy-N-(4-(4-methylthiazol-5-yl)benzyl)pyrrolidine-2-carboxamide]
LE [6]: 0.24 kcal × mol^-1 × NHA^-1
LLE [6]: 6.28 kcal × mol^-1 × NHA^-1
GE (group efficiency) [1]: –0.05

SMILES: Cc1ncsc1-c1ccc(CNC(=O)[C@@H]2C[C@@H](O)CN2C(=O)[C@@H](NC(=O)C2(F)CC2)C(C)(C)C)cc1 [Inhibitor 10, (2S,4R)-1-((S)-2-(1-Fluorocyclopropanecarboxamido)-3,3-dimethylbutanoyl)-4-hydroxy-N-(4-(4-methylthiazol-5-yl)benzyl)pyrrolidine-2-carboxamide]
Compound associated with cells [2]: 383.6 µM
Final free compound concentration in cells [2]: 0.071 µM
fraction unbound [3]: 0.0002
Papp at 5 h, 10 μM [7]: 2.71 ×10⁻⁶ cm/s
toxicity in cell-proliferation assay [9]: notably decreased cell proliferation; also recorded: toxicity
Dissociative t1/2 ([8]; 10°C (first value of cell)): 11.94 ± 0.08 s
Dissociative t1/2 ([8]; 20°C (second value of cell)): 7.073 ± 0.007 s
toxicity in colony formation assay [10]: a degree of cytotoxicity; also recorded: toxicity
Microsomal stability (intrinsic clearance) [5]: 2.9 mL/min/g

SMILES: Cc1ncsc1-c1ccc(CNC(=O)[C@@H]2C[C@@H](O)CN2C(=O)[C@@H](NC(=O)C2(F)CC2)C(C)O)cc1 (stereo in doubt) [Inhibitor 14, (2S,4R)-1-((2S,3S)-2-(1-Fluorocyclopropanecarboxamido)-3-hydroxybutanoyl)-4-hydroxy-N-(4-(4-methylthiazol-5-yl)benzyl)pyrrolidine-2-carboxamide]
GE (group efficiency) [1]: –0.19

SMILES: COCCc1ccc(OCC(O)CNC(C)C)cc1 (centres unmarked) [Metoprolol, reference compound]
fraction unbound [3]: 0.005

SMILES: Cc1ncsc1-c1ccc(CNC(=O)[C@@H]2C[C@@H](O)CN2C(=O)[C@@H](NC(=O)CO)C(C)(C)C)cc1 [Inhibitor 3, (2S,4R)-4-Hydroxy-1-((S)-2-(2-hydroxyacetamido)-3,3-dimethylbutanoyl)-N-(4-(4-methylthiazol-5-yl)benzyl)pyrrolidine-2-carboxamide]
LE [6]: 0.27 kcal × mol^-1 × NHA^-1
LLE [6]: 6.28 kcal × mol^-1 × NHA^-1
GE (group efficiency) [1]: −0.11

SMILES: Cc1ncsc1-c1ccc(CNC(=O)[C@@H]2C[C@@H](O)CN2C(=O)[C@@H](NC(=O)C2(C#N)CC2)C(C)(C)C)cc1 [Inhibitor 15, (2S,4R)-1-((S)-2-(1-Cyanocyclopropanecarboxamido)-3,3-dimethylbutanoyl)-4-hydroxy-N-(4-(4-methylthiazol-5-yl)benzyl)pyrrolidine-2-carboxamide]
Compound associated with cells [2]: 150.0 µM
fraction unbound [3]: 0.0007
Papp at 5 h, 10 μM [7]: 1.94 ×10⁻⁶ cm/s
toxicity in colony formation assay [10]: no toxicity
Microsomal stability (intrinsic clearance) [5]: 3.1 mL/min/g

Further lines, results first:

GE (group efficiency) [1]: −0.12
SMILES: Cc1ncsc1-c1ccc(CNC(=O)[C@@H]2C[C@@H](O)CN2C(=O)[C@@H](NC(=O)CC(C)(C)C)C(C)(C)C)cc1 [Inhibitor 5, (2S,4R)-1-((S)-2-(3,3-Dimethylbutanamido)-3,3-dimethylbutanoyl)-4-hydroxy-N-(4-(4-methylthiazol-5-yl)benzyl)pyrrolidine-2-carboxamide]

LE [6]: 0.26 kcal × mol^-1 × NHA^-1
LLE [6]: 5.68 kcal × mol^-1 × NHA^-1
GE (group efficiency) [1]: −0.02
SMILES: Cc1ncsc1-c1ccc(CNC(=O)[C@@H]2C[C@@H](O)CN2C(=O)[C@@H](NC(=O)C2CC2)C(C)(C)C)cc1 [Inhibitor 6, (2S,4R)-1-((S)-2-(Cyclopropanecarboxamido)-3,3-dimethylbutanoyl)-4-hydroxy-N-(4-(4-methylthiazol-5-yl)benzyl)pyrrolidine-2-carboxamide]

Compound associated with cells [2]: 100.0 µM
Final free compound concentration in cells [2]: 0.046 µM
fraction unbound [3]: 0.0008
Papp at 5 h, 10 μM [7]: 1.5 ×10⁻⁶ cm/s
Dissociative t1/2 ([8]; 10°C (first value of cell)): 10.04 ± 0.01 s
Dissociative t1/2 ([8]; 20°C (second value of cell)): 4.101 ± 0.007 s
kon ([8]; 10°C): 600000 M⁻¹ s⁻¹
kon ([8]; 20°C): 820000 M⁻¹ s⁻¹
LE [6]: 0.25 kcal × mol^-1 × NHA^-1
LLE [6]: 5.63 kcal × mol^-1 × NHA^-1
GE (group efficiency) [1]: –0.01
Microsomal stability (intrinsic clearance) [5]: 2.5 mL/min/g
SMILES: CC(=O)C1(C(=O)N[C@H](C(=O)N2C[C@H](O)C[C@H]2C(=O)NCc2ccc(-c3scnc3C)cc2)C(C)(C)C)CC1 [Inhibitor 16, (2S,4R)-1-((S)-2-(1-Acetylcyclopropanecarboxamido)-3,3-dimethylbutanoyl)-4-hydroxy-N-(4-(4-methylthiazol-5-yl)benzyl)pyrrolidine-2-carboxamide]

GE (group efficiency) [1]: −0.08
SMILES: Cc1ncsc1-c1ccc(CNC(=O)[C@@H]2C[C@@H](O)CN2C(=O)[C@@H](NC(=O)C(F)(F)F)C(C)(C)C)cc1 [Inhibitor 7, (2S,4R)-1-((S)-3,3-Dimethyl-2-(2,2,2-trifluoroacetamido)butanoyl)-4-hydroxy-N-(4-(4-methylthiazol-5-yl)benzyl)pyrrolidine-2-carboxamide]

GE (group efficiency) [1]: −0.04
SMILES: Cc1ncsc1-c1ccc(CNC(=O)[C@@H]2C[C@@H](O)CN2C(=O)[C@@H](NC(=O)C(Cl)(Cl)Cl)C(C)(C)C)cc1 [Inhibitor 8, (2S,4R)-1-((S)-3,3-Dimethyl-2-(2,2,2-trichloroacetamido)butanoyl)-4-hydroxy-N-(4-(4-methylthiazol-5-yl)benzyl)pyrrolidine-2-carboxamide]

GE (group efficiency) [1]: −0.24
SMILES: Cc1ncsc1-c1ccc(CNC(=O)[C@@H]2C[C@@H](O)CN2C(=O)[C@@H](NC(=O)C(C)(C)F)C(C)(C)C)cc1 [Inhibitor 9, (2S,4R)-1-((S)-2-(2-Fluoro-2-methylpropanamido)-3,3-dimethylbutanoyl)-4-hydroxy-N-(4-(4-methylthiazol-5-yl)benzyl)pyrrolidine-2-carboxamide]

Compound associated with cells [2]: 204.0 µM
Final free compound concentration in cells [2]: 0.093 µM
fraction unbound [3]: 0.0008
Dissociative t1/2 ([8]; 10°C (first value of cell)): 4.95 ± 0.01 s
Dissociative t1/2 ([8]; 20°C (second value of cell)): 2.71 ± 0.01 s
kon ([8]; 10°C): 517000 M⁻¹ s⁻¹
kon ([8]; 20°C): 1.1e+06 M⁻¹ s⁻¹
LE [6]: 0.25 kcal × mol^-1 × NHA^-1
LLE [6]: 5.38 kcal × mol^-1 × NHA^-1
GE (group efficiency) [1]: –0.07
Microsomal stability (intrinsic clearance) [5]: 3.0 mL/min/g
SMILES: Cc1ncsc1-c1ccc(CNC(=O)[C@@H]2C[C@@H](O)CN2C(=O)[C@@H](NC(=O)C2CCC2)C(C)(C)C)cc1 [Inhibitor 18, (2S,4R)-1-((S)-2-(Cyclobutanecarboxamido)-3,3-dimethylbutanoyl)-4-hydroxy-N-(4-(4-methylthiazol-5-yl)benzyl)pyrrolidine-2-carboxamide]
